Assay type in all cases: functional
Assay [1] concerns Pseudomonas aeruginosa. Nature of the assay: Anti-bacterial activity against Pseudomonas aeruginosa ST235 assessed as inhibition of bacterial growth. The note with it: Pseudomonas aeruginosa, ST235; read-out: MIC.
The next assay relates to Acinetobacter baumannii. Nature of the assay: Anti-bacterial activity against Acinetobacter baumannii R674 assessed as inhibition of bacterial growth.
For another assay, the system named is Candida parapsilosis. Nature of the assay: Anti-fungal activity against Candida parapsilosis assessed as inhibition of fungal growth. As to conditions: Lodderomyces parapsilosis; read-out: MIC.
Assay [2] relates to Candida albicans. Nature of the assay: Anti-fungal activity against Candida albicans 90023 assessed as inhibition of fungal growth.
The subject of assay [3] is Staphylococcus aureus. The assay can be described thus: Anti-bacterial activity against Staphylococcus aureus ATCC 25923 assessed as inhibition of bacterial growth. As to conditions: Staphylococcus aureus, ATCC 25923; read-out: MIC.
The test system of assay [4] is Candida albicans. Nature of the assay: Anti-fungal activity against Candida albicans assessed as inhibition of fungal growth. As to conditions: Candida albicans; read-out: MIC.
Assay [5] has as its system Pseudomonas aeruginosa. The assay can be described thus: Anti-bacterial activity against Pseudomonas aeruginosa ATCC 15442 assessed as inhibition of bacterial growth. The note with it: Pseudomonas aeruginosa, ATCC 15442; read-out: MIC.
Assay [6] concerns Staphylococcus aureus. The assay can be described thus: Anti-bacterial activity against Staphylococcus aureus CMCC (B) 26001 assessed as inhibition of bacterial growth.
Assay [7] concerns Staphylococcus aureus. The assay can be described thus: Anti-bacterial activity against Staphylococcus aureus ATCC 6538 assessed as inhibition of bacterial growth.
In assay [8] the test system is Pseudomonas aeruginosa. Nature of the assay: Anti-bacterial activity against Pseudomonas aeruginosa ATCC 27853 assessed as inhibition of bacterial growth. As to conditions: Pseudomonas aeruginosa, ATCC 27853; read-out: MIC.
For assay [9], the system named is Staphylococcus aureus. The assay can be described thus: Anti-bacterial activity against Staphylococcus aureus ATCC 29213 assessed as inhibition of bacterial growth. The note with it: Staphylococcus aureus, ATCC 29213; read-out: MIC.
The test system of assay [10] is Escherichia coli. The assay can be described thus: Anti-bacterial activity against Escherichia coli JM109 assessed as inhibition of bacterial growth.
In assay [11] the test system is Pseudomonas aeruginosa. Nature of the assay: Anti-bacterial activity against Pseudomonas aeruginosa CMCC (B) 10104 assessed as inhibition of bacterial growth. As to conditions: Pseudomonas aeruginosa, CMCC (B) 10104; read-out: MIC.
The subject of assay [12] is Staphylococcus aureus. Nature of the assay: Anti-bacterial activity against methicillin-resistant Staphylococcus aureus ATCC 43300 assessed as inhibition of bacterial growth. The note with it: Staphylococcus aureus, ATCC 43300; read-out: MIC.
The test system of assay [13] is Staphylococcus aureus. Nature of the assay: Anti-bacterial activity against methicillin-resistant Staphylococcus aureus N315 assessed as inhibition of bacterial growth. As to conditions: Staphylococcus aureus, N315; read-out: MIC.
A further assay relates to Candida tropicalis. The assay can be described thus: Anti-fungal activity against Candida tropicalis assessed as inhibition of fungal growth. As to conditions: Candida tropicalis; read-out: MIC.
The test system of assay [14] is Escherichia coli. Nature of the assay: Anti-bacterial activity against Escherichia coli ATCC 25922 assessed as inhibition of bacterial growth.
In assay [15] the test system is Pseudomonas aeruginosa. The assay can be described thus: Anti-bacterial activity against Pseudomonas aeruginosa ATCC 9027 assessed as inhibition of bacterial growth.
The subject of assay [16] is Staphylococcus aureus. The assay can be described thus: Anti-bacterial activity against Staphylococcus aureus ATCC 12600 assessed as inhibition of bacterial growth. The note with it: Staphylococcus aureus, ATCC 12600; read-out: MIC.
Assay [17] relates to Staphylococcus aureus. The assay can be described thus: Anti-bacterial activity against Staphylococcus aureus CMCC (B) 26003 assessed as inhibition of bacterial growth.
For a further assay, the system named is Enterococcus faecalis. Nature of the assay: Anti-bacterial activity against Enterococcus faecalis V583 assessed as inhibition of bacterial growth.
The subject of another assay is Klebsiella pneumoniae. Nature of the assay: Anti-bacterial activity against Klebsiella pneumoniae KPN325 assessed as inhibition of bacterial growth. The note with it: Klebsiella pneumoniae, KPN325; read-out: MIC.
Assay [18] deals with Staphylococcus aureus. Nature of the assay: Anti-bacterial activity against Staphylococcus aureus ATCC 1708 assessed as inhibition of bacterial growth. The note with it: Staphylococcus aureus, ATCC 1708; read-out: MIC.

SMILES strings stand for the structures. ≈ marks a conversion by molar mass, not a printed value.

On to `CCOC(=O)C1=C(CN2CCNCC2)NC(=O)NC1c1ccc2c(c1)c1ccccc1n2CC` (centres undefined), for which the minimal inhibitory concentration (MIC) in the assay on Pseudomonas aeruginosa [1] came out at 222 µM (≈ 102 µg/mL); with Acinetobacter baumannii it was 7 µM (≈ 3.23 µg/mL); in the assay on Candida parapsilosis it was 470 µM (≈ 217 µg/mL); with Candida albicans [2], 59 µM (≈ 27.2 µg/mL); with Staphylococcus aureus [3] it was 222 µM (≈ 102 µg/mL); in the assay on Candida albicans [4], 470 µM (≈ 217 µg/mL). In addition, the MIC stood at 56 µM (≈ 25.8 µg/mL) with Pseudomonas aeruginosa [5]; 111 µM (≈ 51.2 µg/mL) in the assay on Staphylococcus aureus [6]; 111 µM (≈ 51.2 µg/mL) with Staphylococcus aureus [7]; 222 µM (≈ 102 µg/mL) in the assay with Pseudomonas aeruginosa [8]; 14 µM (≈ 6.46 µg/mL) in the assay with Staphylococcus aureus [9]; 222 µM (≈ 102 µg/mL) in the assay with Escherichia coli [10]. Also, the MIC is 444 µM (≈ 205 µg/mL) with Pseudomonas aeruginosa [11]; 111 µM (≈ 51.2 µg/mL) in the assay on Staphylococcus aureus [12]; 222 µM (≈ 102 µg/mL) with Staphylococcus aureus [13]; 470 µM (≈ 217 µg/mL) in the assay on Candida tropicalis; 222 µM (≈ 102 µg/mL) with Escherichia coli [14]; 444 µM (≈ 205 µg/mL) in the assay with Pseudomonas aeruginosa [15]. For the same compound, the MIC with Staphylococcus aureus [16] amounted to 222 µM (≈ 102 µg/mL); in the assay with Staphylococcus aureus [17], 222 µM (≈ 102 µg/mL); in the assay on Enterococcus faecalis it was 28 µM (≈ 12.9 µg/mL); in the assay on Klebsiella pneumoniae, 222 µM (≈ 102 µg/mL); in the assay with Staphylococcus aureus [18] it was 222 µM (≈ 102 µg/mL).
As for `CCCCc1nc(Cl)c(C2NC(=O)NC(CN3CCN(CC(=O)c4ccc(Cl)cc4)CC3)=C2C(=O)OCC)[nH]1` (centres undefined), the MIC with Pseudomonas aeruginosa [1] turned out to be 111 µM (≈ 64.1 µg/mL); in the assay with Acinetobacter baumannii, 111 µM (≈ 64.1 µg/mL); with Candida parapsilosis it was 444 µM (≈ 256 µg/mL); in the assay with Candida albicans [2], 14 µM (≈ 8.09 µg/mL); in the assay on Staphylococcus aureus [3], 222 µM (≈ 128 µg/mL); in the assay on Candida albicans [4] it was 444 µM (≈ 256 µg/mL). The MIC in the assay on Pseudomonas aeruginosa [5] stood at 111 µM (≈ 64.1 µg/mL); in the assay with Staphylococcus aureus [6], 28 µM (≈ 16.2 µg/mL); in the assay on Staphylococcus aureus [7], 444 µM (≈ 256 µg/mL); in the assay on Pseudomonas aeruginosa [8], 111 µM (≈ 64.1 µg/mL); in the assay on Staphylococcus aureus [9], 56 µM (≈ 32.3 µg/mL); in the assay with Escherichia coli [10], 222 µM (≈ 128 µg/mL). The minimal inhibitory concentration (MIC) in the assay with Pseudomonas aeruginosa [11] came out at 56 µM (≈ 32.3 µg/mL); in the assay with Staphylococcus aureus [12] it was 56 µM (≈ 32.3 µg/mL); in the assay with Staphylococcus aureus [13], 222 µM (≈ 128 µg/mL); in the assay on Candida tropicalis, 444 µM (≈ 256 µg/mL); in the assay with Escherichia coli [14] it was 111 µM (≈ 64.1 µg/mL); with Pseudomonas aeruginosa [15], 28 µM (≈ 16.2 µg/mL). In addition, the minimal inhibitory concentration (MIC) with Staphylococcus aureus [16] stood at 56 µM (≈ 32.3 µg/mL); in the assay on Staphylococcus aureus [17], 56 µM (≈ 32.3 µg/mL); in the assay with Enterococcus faecalis it was 222 µM (≈ 128 µg/mL); with Klebsiella pneumoniae, 222 µM (≈ 128 µg/mL); in the assay with Staphylococcus aureus [18], 444 µM (≈ 256 µg/mL).
On to `CCOC(=O)C1=C(CN2CCN(C(=O)/C(=N/OC)c3csc(N)n3)CC2)NC(=O)NC1c1cccc(O)c1` (centres undefined), for which the MIC in the assay on Pseudomonas aeruginosa [1] is 59 µM (≈ 32.1 µg/mL); in the assay on Acinetobacter baumannii it was 15 µM (≈ 8.15 µg/mL); in the assay with Candida parapsilosis, 430 µM (≈ 234 µg/mL); with Candida albicans [2], 7 µM (≈ 3.81 µg/mL); in the assay with Staphylococcus aureus [3], 118 µM (≈ 64.1 µg/mL); with Candida albicans [4], 430 µM (≈ 234 µg/mL). Moreover, the MIC with Pseudomonas aeruginosa [5], in the assay with Staphylococcus aureus [6], with Staphylococcus aureus [7], with Pseudomonas aeruginosa [8], in the assay with Staphylococcus aureus [9] and in the assay on Escherichia coli [10] was 59 µM (≈ 32.1 µg/mL) each time. Besides, the MIC was 117 µM (≈ 63.6 µg/mL) in the assay with Pseudomonas aeruginosa [11]; 59 µM (≈ 32.1 µg/mL) with Staphylococcus aureus [12]; 118 µM (≈ 64.1 µg/mL) with Staphylococcus aureus [13]; 430 µM (≈ 234 µg/mL) in the assay on Candida tropicalis; 59 µM (≈ 32.1 µg/mL) with Escherichia coli [14]; 59 µM (≈ 32.1 µg/mL) in the assay on Pseudomonas aeruginosa [15]. The MIC is 15 µM (≈ 8.15 µg/mL) in the assay on Staphylococcus aureus [16]; 236 µM (≈ 128 µg/mL) with Staphylococcus aureus [17]; 15 µM (≈ 8.15 µg/mL) with Enterococcus faecalis; 59 µM (≈ 32.1 µg/mL) with Klebsiella pneumoniae; 118 µM (≈ 64.1 µg/mL) in the assay with Staphylococcus aureus [18].
